From patent US9771369B2, “Compounds and methods for kinase modulation, and indications therefor” (Plexxikon Inc., priority 2014, dated 2017)

What was measured:
[1] = molecular target: c-kit mutant D816V (Homo sapiens (Human), UniProt P10721, D816V/DEL694-753); assay: c-Kit mutant D816V biochemical assay (AlphaScreen kinase activity)
Procedure, shortened: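 Recombinant His-tagged c-Kit D816V kinase domain (residues 551-934, insert 694-753 deleted, E. coli-expressed) phosphorylating 30 nM biotin-(E4Y)10 with 10 μM ATP, HEPES pH 7.2, Mg/Mn, 5% DMSO; 30 min, room temperature. Phosphorylation detected by AlphaScreen (streptavidin donor/PY30 acceptor beads); IC50 from 8-point 1:3 series.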

[2] = system: BaF3-FL KIT D816V or BaF3-FL KIT V560G/D816V cell line; assay: Cell-based assays of c-Kit mutant kinase activity (cell proliferation, ATPlite); conditions: at least one of the c-kit cell assays of Example 7
Procedure, shortened: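 BaF3 cells dependent on transfected full-length human KIT D816V or V560G/D816V (pCI-Neo, CMV promoter) were seeded at 1×10^4 cells/well and exposed to 8-point 1:3 dilutions from 10 μM top (0.2% DMSO) for three days at 37° C. ATPlite luminescence gave cell number; IC50 from concentration-response.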

Sequence of c-kit mutant D816V (P10721 other isoform, or with tags, fused parts or gaps D816V/del 694-753): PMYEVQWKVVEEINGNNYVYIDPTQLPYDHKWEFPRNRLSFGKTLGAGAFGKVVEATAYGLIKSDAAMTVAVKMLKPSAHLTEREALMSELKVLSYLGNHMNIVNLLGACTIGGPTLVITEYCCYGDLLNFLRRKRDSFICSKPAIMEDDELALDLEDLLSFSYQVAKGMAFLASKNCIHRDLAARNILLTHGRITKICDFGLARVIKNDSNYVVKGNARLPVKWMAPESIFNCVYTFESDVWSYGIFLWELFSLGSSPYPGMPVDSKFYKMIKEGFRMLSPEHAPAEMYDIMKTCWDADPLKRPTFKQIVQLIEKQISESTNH

SMILES	IC50 [1] [µM]	IC50 [2] [nM]
CCOc1ccc(-c2[nH]c(C3(C)CCN(c4ncnc5[nH]c(-c6cnn(C(F)F)c6)cc45)CC3)nc2C)cc1C [P-3245, 6-[1-(difluoromethyl)pyrazol-4-yl]-4-[4-[5-(4-ethoxy-3-methyl-phenyl)-4-methyl-1H-imidazol-2-yl]-4-methyl-1-piperidyl]-7H-pyrrolo[2,3-d]pyrimidine]	0.0001 to 1	< 10000
CNC(=O)c1ccc(-c2cc3c(N4CCC(C)(c5nc(C)c(-c6ccc(OC(F)F)cc6)[nH]5)CC4)ncnc3[nH]2)cn1 [P-3246, 5-[4-[4-[5-[4-(difluoromethoxy)phenyl]-4-methyl-1H-imidazol-2-yl]-4-methyl-1-piperidyl]-7H-pyrrolo[2,3-d]pyrimidin-6-yl]-N-methyl-pyridine-2-carb oxamide]	0.0001 to 1	< 10000
CCOc1ccc(-c2[nH]c(C3(C)CCN(c4ncnc5[nH]c(-c6ccc(C(=O)NC)nc6)cc45)CC3)nc2C)cc1C [P-3247, 5-[4-[4-[5-(4-ethoxy-3-methyl-phenyl)-4-methyl-1H-imidazol-2-yl]-4-methyl-1-piperidyl]-7H-pyrrolo[2,3-d]pyrimidin-6-yl]-N-methyl-pyridine-2-carb oxamide]	0.0001 to 1	< 10000
Cc1nc(C2(C)CCN(c3ncnc4[nH]c(-c5ccc(N6CCOCC6)nc5)cc34)CC2)[nH]c1-c1ccc(OC(F)F)cc1 [P-3248, 4-[5-[4-[4-[5-[4-(difluoromethoxy)phenyl]-4-methyl-1H-imidazol-2-yl]-4-methyl-1-piperidyl]-7H-pyrrolo[2,3-d]pyrimidin-6-yl]-2-pyridyl]morpholine]	0.0001 to 1	< 10000
CCOc1ccc(-c2[nH]c(C3(C)CCN(c4ncnc5[nH]c(-c6ccc(N7CCOCC7)nc6)cc45)CC3)nc2C)cc1C [P-3249, 4-[5-[4-[4-[5-(4-ethoxy-3-methyl-phenyl)-4-methyl-1H-imidazol-2-yl]-4-methyl-1-piperidyl]-7H-pyrrolo[2,3-d]pyrimidin-6-yl]-2-pyridyl]morpholine]	0.0001 to 1	< 10000
